The test system of experiment [1] is methicillin-sensitive Staphylococcus aureus. Put plainly: MIC by broth micro-dilution (CLSI), methicillin-sensitive S. aureus. Format: cell-based. The note with it: Staphylococcus aureus, ATCC 29213 / MSSA, MSSA S. aureus ATCC29213; read-out: MIC.
Experiment [2] concerns carbapenem sensitive Escherichia coli. Kind of experiment: MIC by broth micro-dilution (CLSI), carbapenem sensitive E. coli. The format is cell-based. The note with it: Escherichia coli, ATCC25922, ESBL −ve E. coli ATCC25922; read-out: MIC.
The test system of experiment [3] is carbapenem sensitive Pseudomonas aeruginosa. Put plainly: MIC by broth micro-dilution (CLSI), carbapenem sensitive P. aeruginosa. Format: cell-based. The note with it: Pseudomonas aeruginosa, ATCC27853, Meropenem susceptible P. aeruginosa ATCC27853; read-out: MIC.
In experiment [4] the test system is carbapenemase producing K. pneumoniae. Kind of experiment: MIC by broth micro-dilution (CLSI), carbapenemase producing K. pneumoniae. Format: cell-based, Klebsiella pneumoniae. The note with it: Klebsiella pneumoniae, ATCCBAA1705, KPC-2 K. pneumoniae ATCC BAA-1705; read-out: MIC.

≈ marks a conversion by molar mass, not a printed value.

On to `C[C@@H](NC(=O)Cn1nnnc1C(C)(C)C)[C@H]1C(=O)N2C(C(=O)O)=C(S[C@@H]3CN[C@H](C(=O)N(C)C)C3)[C@H](C)[C@H]12` [Example 356, (4R,5S,6R)-6-((R)-1-(2-(5-tert-butyl-1H-tetrazol-1-yl)acetamido)ethyl)-3-((3S,5S)-5-(dimethylcarbamoyl)pyrrolidin-3-ylthio)-4-methyl-7-oxo-1-azabicyclo[3.2.0]hept-2-ene-2-carboxylic acid], for which the MIC in experiment [1] is 4 µg/mL (≈ 7.29 µM); in experiment [2], 1 µg/mL (≈ 1.82 µM); in experiment [3] it was more than 128 µg/mL; in experiment [4] it was 16 µg/mL (≈ 29.2 µM).
Regarding `C[C@@H](NC(=O)Cn1nnnc1-c1cccs1)[C@H]1C(=O)N2C(C(=O)O)=C(S[C@@H]3CN[C@H](C(=O)N(C)C)C3)[C@H](C)[C@H]12` [Example 357, (4R,5S,6R)-3-((3S,5S)-5-(dimethylcarbamoyl)pyrrolidin-3-ylthio)-4-methyl-7-oxo-6-((R)-1-(2-(5-(thiophen-2-yl)-1H-tetrazol-1-yl)acetamido)ethyl)-1-azabicyclo[3.2.0]hept-2-ene-2-carboxylic acid], the MIC in experiment [1] was 2 µg/mL (≈ 3.48 µM); in experiment [2], 1 µg/mL (≈ 1.74 µM); in experiment [3] it was more than 128 µg/mL; in experiment [4], 32 µg/mL (≈ 55.7 µM).
On the same counts, the results for `C[C@@H](NC(=O)Cn1nnnc1-c1cccs1)[C@H]1C(=O)N2C(C(=O)O)=C(S[C@@H]3CN[C@H](C(=O)N4CC[C@@H](N)C4)C3)[C@H](C)[C@H]12` [Example 358, (4R,5S,6R)-3-((3S,5S)-5-((R)-3-aminopyrrolidine-1-carbonyl)pyrrolidin-3-ylthio)-4-methyl-7-oxo-6-((R)-1-(2-(5-(thiophen-2-yl)-1H-tetrazol-1-yl)acetamido)ethyl)-1-azabicyclo[3.2.0]hept-2-ene-2-carboxylic acid] are 1 µg/mL (≈ 1.62 µM), 1 µg/mL (≈ 1.62 µM), more than 128 µg/mL and 32 µg/mL (≈ 52 µM).
On the same counts, the results for `C[C@@H](NC(=O)Cn1cnnn1)[C@H]1C(=O)N2C(C(=O)O)=C(S[C@@H]3CN[C@H](C(=O)N4CCN(C)CC4)C3)[C@H](C)[C@H]12` [Example 359, (4R,5S,6R)-6-((R)-1-(2-(1H-tetrazol-1-yl)acetamido)ethyl)-4-methyl-3-((3S,5S)-5-(4-methylpiperazine-1-carbonyl)pyrrolidin-3-ylthio)-7-oxo-1-azabicyclo[3.2.0]hept-2-ene-2-carboxylic acid] are 8 µg/mL (≈ 14.6 µM), 0.5 µg/mL (≈ 0.913 µM), 16 µg/mL (≈ 29.2 µM) and 2 µg/mL (≈ 3.65 µM).
On the same counts, the results for `C[C@@H](NC(=O)Cn1cnnn1)[C@H]1C(=O)N2C(C(=O)O)=C(S[C@@H]3CN[C@H](C(=O)N4CC[N+](C)(C)CC4)C3)[C@H](C)[C@H]12` [Example 360, 4-((2S,4S)-((4R,5S,6R)-6-((R)-1-(2-(1H-tetrazol-1-yl)acetamido)ethyl)-2-carboxy-4-methyl-7-oxo-1-azabicyclo[3.2.0]hept-2-en-3-ylthio)pyrrolidine-2-carbonyl)-1,1-dimethylpiperazin-1-ium iodide] are 8 µg/mL, 0.5 µg/mL, 1 µg/mL and 2 µg/mL.
`C[C@@H](NC(=O)Cn1cnnn1)[C@H]1C(=O)N2C(C(=O)O)=C(S[C@@H]3CN[C@H](C(=O)N4CC[N+](C)(CC(N)=O)CC4)C3)[C@H](C)[C@H]12.[I-]` [Example 363, 4-((2S,4S)-4-((4R,5S,6R)-6-((R)-1-(2-(1H-tetrazol-1-yl)acetamido)ethyl)-2-carboxy-4-methyl-7-oxo-1-azabicyclo[3.2.0]hept-2-en-3-ylthio)pyrrolidine-2-carbonyl)-1-(2-amino-2-oxoethyl)-1-methylpiperazin-1-ium iodide]: the MIC in experiment [1] is 4 µg/mL; in experiment [2], 0.25 µg/mL; in experiment [3] it was 1 µg/mL; in experiment [4] it was 2 µg/mL.

These data come from patent US11180504B2 (ORCHID PHARMA LTD., priority 2016, dated 2021).
